# Test results from patent US6564152B2, “Pharmacophore models for, methods of screening for, and identification of the cytochrome P-450 inhibitory potency of neurokinin-1 receptor antagonists” (Pfizer Inc, priority 2000, dated 2003).
# Like-named read-outs stand apart in the source and are kept apart here.
# Target: recombinant CYP2D6 (Homo sapiens, UniProt P10635)
# Assay: Bufuralol 1'-hydroxylase assay (CYP2D6) IC50 determination
# [1] = CYP2D6 IC50, recombinant CYP2D6 0.1 mg/ml, bufuralol 3.4 μM, 37° C., pH 7.4, Table I
# [2] = IC50 Observed, test set of 8 compounds, in vitro values as measured in Example 1, Table II
# Procedure: Using a bufuralol-hydroxylation as a marker for CYP2D6 catalytic activity, the inhibitory effect of various NK-1 antagonists were assessed in vitro. The inhibitor compounds of Table I were assayed for CYP2D6 activity by the following procedure.
# Two separate plates were prepared for the substrate and for dilutions of inhibitor. The contents of the two plates were combined in a 1:1 ratio to make a master plate of substrate and inhibitor solutions (S/I plate). The remaining assay ingredients, a combination of CYP2D6 (0.1 mg/ml, 0.12 pmol/ml, Panvera, Madison Wis.), NADPH (1.2 mM) and buffer (100 mM sodium phosphate, pH 7.4), are prepared on ice and transferred to a polyvinyl reaction plate (RXN plate). […] The RXN plate is pre-warmed to 37° C. using a MJ Research Model PTC-100 automated thermal controller, and the reaction is initiated by addition of an aliquot from the S/I plate. The reaction is allowed to proceed at 37° C. before being terminated using 70% perchloric acid (50 μl). HPLC analysis is preceded by filtration of (150μl) using a Millipore multiscreen-MAHA mixed cellulose esters, triton free, non-sterile plate (Millipore Co., Bedford, Mass.).
# The reactions were then terminated as described above and Multiscreen plates were then used to filter the samples by slowly drawing them through the filter plate by a weak vacuum and collecting them in a polypropylene 96-well plate. The plate was mixed by drawing up and expelling well contents twice with the Soken pipettor. A 20 μl volume of each sample was injected for HPLC analysis every 2.5 minutes. When required, concentrations of the inhibitor were adjusted in a repeat experiment to cover concentration ranges above and below the reported IC50 value.
# The mobile phase consisted of acetonitrile and water 20/80 v/v containing triethylamine (1 ml/liter) and phosphoric acid (600 l/liter) at a flow rate of 0.5 ml/min (analytical side) and 1.8 ml/min (wash side) using a column switching format. HPLC analysis was performed with two alternating HPLC columns (column A and column B) attached to a Valco E36 valve. Between 0 and 5.2 minutes of the run time, column A analyses metabolite peak of sample #1. […] During the wash cycle, the flow to column A is increased to 1.8 ml/min. […] A Phenomex primesphere C1 8-MC, 5 μm, 30×2 mm column (Phenomenex, Torrance, Calif.) was used. The retention time of the 1′-hydroxybufuralol (carbinol) metabolite was 1.0 minute. The peak area of the carbinol metabolite was determined in the absence of inhibitor and compared to that measured in the presence of inhibitor. The percent of control values versus inhibitor concentration were fitted to a Hill equation using non-linear curve fitting methods, namely, Deltagraph (DeltaPoint, Inc., Monterey, Calif.).
# recombinant CYP2D6, sequence (P10635 whole entry): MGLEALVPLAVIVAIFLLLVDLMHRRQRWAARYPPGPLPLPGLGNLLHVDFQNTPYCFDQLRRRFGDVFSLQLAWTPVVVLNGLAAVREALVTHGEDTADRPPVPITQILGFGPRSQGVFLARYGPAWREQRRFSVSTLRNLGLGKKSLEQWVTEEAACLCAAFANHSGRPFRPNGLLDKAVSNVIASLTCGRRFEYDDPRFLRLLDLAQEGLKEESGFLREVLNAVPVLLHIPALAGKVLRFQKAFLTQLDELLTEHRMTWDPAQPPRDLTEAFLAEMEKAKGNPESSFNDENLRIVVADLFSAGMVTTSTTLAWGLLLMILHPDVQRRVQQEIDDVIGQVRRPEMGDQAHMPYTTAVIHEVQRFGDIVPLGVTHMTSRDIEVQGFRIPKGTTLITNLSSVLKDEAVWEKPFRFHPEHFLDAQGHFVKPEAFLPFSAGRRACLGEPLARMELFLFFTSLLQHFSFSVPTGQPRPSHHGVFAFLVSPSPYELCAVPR
Structure (SMILES),IC50 [1] [nM],IC50 [2] [nM],IC50 [nM]
COc1ccc(-n2cnnn2)cc1CN[C@H]1CCCN[C@H]1c1ccccc1 [XXV],320,320,
COc1ccccc1CN[C@@H]1C2CCN(CC2)[C@@H]1C(c1ccccc1)c1ccccc1 [III],170,,
O=c1[nH]nc(CN2CCO[C@H](OCc3cc(C(F)(F)F)cc(C(F)(F)F)c3)[C@@H]2c2ccccc2)[nH]1 [Compound XXIV],7100,7100,
CC(C)Oc1ccc(OC(F)(F)F)cc1CN[C@H]1CCCN[C@H]1c1ccccc1 [XIX],,,47
Clc1ccccc1CN[C@@H]1C2CCN(CC2)[C@@H]1C(c1ccccc1)c1ccccc1 [I],,,59
Clc1ccccc1CN[C@@H]1C2CC3CCC(C2)N3[C@@H]1C(c1ccccc1)c1ccccc1 [VII],65,,
COc1ccccc1CN[C@@H]1CCCC[C@@H]1C(c1ccccc1)c1ccccc1 [II],16,16,
COc1ccccc1CC(=N)N1C[C@H]2C(=O)CCC(c3ccccc3)(c3ccccc3)[C@H]2C1 [XIII],13,,
COc1ccccc1[C@H]1CC[C@]2(CCCN[C@@H]2c2ccccc2)NC1 [Compound XX],21,,
CC(C)Oc1ccccc1CN[C@H]1CCCN[C@H]1c1ccccc1 [XIV],38,38,
FC(F)(F)c1cc(CO[C@H]2OCCN(Cc3nnc[nH]3)[C@H]2c2ccccc2)cc(C(F)(F)F)c1 [XXIII],8800,,
COc1ccc(-n2nnnc2C(F)(F)F)cc1CN[C@H]1CCCN[C@H]1c1ccccc1 [XXVI],530,,
COc1ccccc1CN[C@H]1CCCN[C@H]1c1ccccc1 [IV],200,21,
CCOc1ccc(OC(F)(F)F)cc1CN[C@H]1CCCN[C@H]1c1ccccc1 [XVIII],45,,
COc1ccccc1CN[C@@H]1C2CC3CCC(C2)N3[C@@H]1C(c1ccccc1)c1ccccc1 [V],41,,

# Continued by falling IC50 [1], values first:
IC50 [1] [nM],IC50 [2] [nM],Structure (SMILES),IC50 [nM]
18400,,C[C@@H](O[C@H]1OCCN(Cc2n[nH]c(=O)[nH]2)[C@H]1c1ccc(F)cc1)c1cc(C(F)(F)F)cc(C(F)(F)F)c1 [Compound XXI],
370,,COc1ccc(OC)c(CN[C@H]2CCCN[C@H]2c2ccccc2)c1 [Compound X],
130,,COc1ccccc1CN[C@@H]1[C@H]2CCC[C@H]2N[C@@H]1c1ccccc1 [IX],
74,,FC(F)Oc1ccccc1CN[C@H]1CCCN[C@H]1c1ccccc1 [XVI],
40,,FC(F)(F)Oc1ccccc1CN[C@H]1CCCN[C@H]1c1ccccc1 [XVII],
22,,COc1ccccc1CN[C@@H]1C2CC3CCCC(C2)N3[C@@H]1C(c1ccccc1)c1ccccc1 [VIII],
16,16,Clc1ccccc1CN[C@@H]1C2C3CCCC2CN(C3)[C@@H]1C(c1ccccc1)c1ccccc1 [XI],
13,13,c1ccc(CN[C@@H]2C3CC4CCC(C3)N4[C@@H]2C(c2ccccc2)c2ccccc2)cc1 [VI],
6.7,,COc1ccccc1CN[C@@H]1C2C3CCCC2CN(C3)[C@@H]1C(c1ccccc1)c1ccccc1 [XII],
